Activity calls are given as the source filed them.
Assays:
Cytochrome P450 2C9 = Cytochrome P450 2C9 (Homo sapiens, UniProt P11712)
Cytochrome P450 2C19 = Cytochrome P450 2C19 (Homo sapiens, UniProt P33261); assay: Cytochrome panel assay with activity outcomes. Panel member name: p450-cyp2c19 Compounds with AC50 equal or less than 10 uM are considered active; format: functional
[1] = cytotoxicity in HEK-293T cells, dose response, cytotoxicity control for BCR NF-kB inhibitor project, luminescence, B-cell screen hits (AID 489021); format: functional, cell-based;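 also: HEK-293T cells carrying an NF-kB luciferase reporter; cells exposed to compound for about 14 hours before viability readout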
[2] = growth suppression of PTEN-null colon cells, dose response, cell-based, HCT116 PTEN knockout (AID 1047); format: functional;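 also: HCT116 colon tumor cells with PTEN knocked out; cells exposed to compound for 60 hours before readout; potency for loss of cell viability measured by luminescence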
[3] = growth suppression of beta-catenin-knockout colon cells, dose response, cell-based, HCT116, human colon tumor (AID 1045); format: functional;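 also: HCT116 colon tumor cells with beta catenin knocked out; cells exposed to compound for 60 hours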
X-box-binding protein 1 = target: T1, X-box-binding protein 1 (Homo sapiens, UniProt P17861); format: functional, Cricetulus griseus;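 also: confirmatory dose-response counter-screen serving a CHOP assay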
T1 sequence (P17861 whole entry): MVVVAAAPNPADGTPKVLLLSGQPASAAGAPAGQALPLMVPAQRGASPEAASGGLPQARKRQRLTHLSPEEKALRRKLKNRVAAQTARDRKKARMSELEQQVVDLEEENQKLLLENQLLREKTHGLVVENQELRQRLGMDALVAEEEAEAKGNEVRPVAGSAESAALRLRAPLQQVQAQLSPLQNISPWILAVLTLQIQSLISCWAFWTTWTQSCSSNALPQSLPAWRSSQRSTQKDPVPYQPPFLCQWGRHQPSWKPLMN

[4] = Luminescence Cell-Based Dose Retest to Confirm Inhibitors of Cancer Stem Cells. [Related pubchem assays (depositor defined):AID2717, AID2721]; format: functional; conditions: Homo sapiens
INS1 = assay: beta cell apoptosis inhibitors, cytokine rescue, dose response, luminescence, retest (AID 449756); format: functional, cell-based; conditions: Rattus norvegicus;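 also: cell death triggered by IL-1 beta plus TNF-alpha plus IFN-gamma mixture; protective hits raise ATP signal compared with cytokine alone wells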
Hexokinase HKDC1 = target: T2, Hexokinase HKDC1 (Homo sapiens, UniProt Q2TB90); assay: HKDC1 hexokinase inhibitors, dose response, biochemical, W721R variant (AID 504729); format: functional
T2 sequence (Q2TB90 whole entry): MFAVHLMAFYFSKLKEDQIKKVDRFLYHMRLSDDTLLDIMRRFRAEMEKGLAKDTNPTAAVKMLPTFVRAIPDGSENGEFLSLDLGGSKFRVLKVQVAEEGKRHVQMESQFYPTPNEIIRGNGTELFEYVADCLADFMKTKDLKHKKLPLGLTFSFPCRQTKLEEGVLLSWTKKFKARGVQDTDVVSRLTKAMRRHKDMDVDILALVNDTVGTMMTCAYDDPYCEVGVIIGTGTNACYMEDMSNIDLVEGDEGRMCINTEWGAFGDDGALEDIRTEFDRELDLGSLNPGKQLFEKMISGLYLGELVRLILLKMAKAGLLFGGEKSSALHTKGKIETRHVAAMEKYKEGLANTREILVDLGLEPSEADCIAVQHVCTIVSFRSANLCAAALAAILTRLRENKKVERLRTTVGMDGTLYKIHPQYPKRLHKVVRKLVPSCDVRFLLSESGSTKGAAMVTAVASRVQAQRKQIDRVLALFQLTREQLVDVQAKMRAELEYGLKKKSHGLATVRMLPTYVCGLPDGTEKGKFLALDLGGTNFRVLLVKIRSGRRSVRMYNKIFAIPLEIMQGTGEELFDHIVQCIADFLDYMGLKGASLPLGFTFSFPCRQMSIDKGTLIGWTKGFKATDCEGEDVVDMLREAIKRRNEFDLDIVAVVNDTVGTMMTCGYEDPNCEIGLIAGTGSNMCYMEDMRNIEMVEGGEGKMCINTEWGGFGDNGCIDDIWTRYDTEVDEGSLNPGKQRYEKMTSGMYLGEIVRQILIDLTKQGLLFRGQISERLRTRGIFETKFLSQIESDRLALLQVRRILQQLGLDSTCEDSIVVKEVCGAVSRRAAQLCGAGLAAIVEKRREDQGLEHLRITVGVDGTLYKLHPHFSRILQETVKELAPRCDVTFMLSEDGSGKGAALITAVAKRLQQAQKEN

Large T antigen = Large T antigen (Simian virus 40, UniProt P03070); format: functional, Betapolyomavirus macacae;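 also: Confirmatory-stage PubChem screen for compounds that inhibit SV40 T antigen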
[5] = tested on: Streptococcus sp. 'group A'; assay: growth inhibition of control SK(-) GAS strain, dose response, counter-screen for streptokinase expression inhibitor project, luminescence, kanamycin, BacTiterGlo, confirmation (AID 1900); format: functional, organism-based
[6] = target: T3, Neuropeptide Y receptor type 2 (Homo sapiens, UniProt P49146); assay: Fluorescence-based cell-based high-throughput dose response assay for agonists of NPY-Y2. [Related pubchem assays: 1703 (Screening assay (CNGC inhibitors).), 1359 (Screening assay (NPY-Y2 potentiators or agonists).), 1304 (Screening assay (NPY-Y1 potentiators or agonists).), 1710 (Screening assay (NPY-Y2 agonists).), 1791 (Summary AID.)]; format: functional
T3 sequence (P49146 whole entry): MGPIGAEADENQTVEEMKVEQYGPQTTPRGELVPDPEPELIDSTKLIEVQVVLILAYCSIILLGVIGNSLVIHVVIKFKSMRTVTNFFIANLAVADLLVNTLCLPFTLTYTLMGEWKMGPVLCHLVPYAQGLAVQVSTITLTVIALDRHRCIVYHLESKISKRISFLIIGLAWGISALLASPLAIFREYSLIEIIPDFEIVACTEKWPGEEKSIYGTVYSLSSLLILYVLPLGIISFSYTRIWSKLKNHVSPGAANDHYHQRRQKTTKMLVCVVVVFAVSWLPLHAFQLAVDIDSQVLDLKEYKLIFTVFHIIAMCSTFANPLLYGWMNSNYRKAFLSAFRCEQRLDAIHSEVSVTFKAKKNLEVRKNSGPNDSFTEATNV

Streptococcus = assay: Group A Streptococcus viability loss, dose response, counter-screen for streptokinase expression inhibitor project, luminescence, BacTiterGlo (AID 1915); format: functional, organism-based;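 also: potency for reduction of bacterial viability or growth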
HEK293 = assay: Fluorescence-based counterscreen for potentiators or agonists of NPY-Y2: cell-based high-throughput dose response assay to identify inhibitors of cyclic nucleotide gated ion channel (CNGC) activity. In this assay, the parental HEK293 cell line transfected with a cyclic-nucleotide gated ion channel (CNGC)-based cAMP sensor is used to measure inhibition of isoproterenol-induced CNGC activity by test compound.; format: functional; conditions: Homo sapiens;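 also: stimulus is 1 µM isoproterenol at EC100 plus PDE inhibitor Ro 20-1724 at 25 µM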
[7] = target: T4, Neuropeptide Y receptor type 1 (Homo sapiens, UniProt P25929); assay: Fluorescence-based counterscreen for agonists of NPY-Y2: cell-based high-throughput dose response assay for agonists of NPY-Y1.; format: functional
T4 sequence (P25929 whole entry): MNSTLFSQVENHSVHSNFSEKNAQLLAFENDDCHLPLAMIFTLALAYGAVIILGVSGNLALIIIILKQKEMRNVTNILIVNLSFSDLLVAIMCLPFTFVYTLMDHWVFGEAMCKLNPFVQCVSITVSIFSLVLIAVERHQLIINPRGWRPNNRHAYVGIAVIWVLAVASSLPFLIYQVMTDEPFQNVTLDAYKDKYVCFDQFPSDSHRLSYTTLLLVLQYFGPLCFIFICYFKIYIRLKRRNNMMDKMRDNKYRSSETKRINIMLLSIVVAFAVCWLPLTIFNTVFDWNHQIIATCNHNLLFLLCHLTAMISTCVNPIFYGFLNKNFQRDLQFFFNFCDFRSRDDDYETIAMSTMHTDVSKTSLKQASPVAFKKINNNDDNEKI

Streptokinase A = target: T5, Streptokinase A (Streptococcus pyogenes serotype M1, UniProt P10520); assay: S. pyogenes streptokinase expression inhibitors, potency, dose response, plasminogen activation absorbance, OD405 (AID 1914); format: functional, Streptococcus pyogenes M1 GAS;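 also: secreted streptokinase activity via plasminogen activation per viability signal from cell pellet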
T5 sequence (P10520 whole entry): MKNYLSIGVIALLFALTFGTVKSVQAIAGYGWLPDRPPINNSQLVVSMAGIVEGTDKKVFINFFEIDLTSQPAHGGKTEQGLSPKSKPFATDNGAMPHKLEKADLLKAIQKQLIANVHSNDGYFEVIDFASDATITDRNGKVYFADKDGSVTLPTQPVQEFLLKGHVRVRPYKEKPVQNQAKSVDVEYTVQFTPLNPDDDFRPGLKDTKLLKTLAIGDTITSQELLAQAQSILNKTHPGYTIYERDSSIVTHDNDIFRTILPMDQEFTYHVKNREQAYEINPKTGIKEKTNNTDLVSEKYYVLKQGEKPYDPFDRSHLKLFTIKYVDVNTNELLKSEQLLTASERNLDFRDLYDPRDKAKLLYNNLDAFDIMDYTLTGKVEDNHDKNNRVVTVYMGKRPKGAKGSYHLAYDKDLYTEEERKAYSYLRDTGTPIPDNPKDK

Sequence of Cytochrome P450 2C19 (P33261 whole entry): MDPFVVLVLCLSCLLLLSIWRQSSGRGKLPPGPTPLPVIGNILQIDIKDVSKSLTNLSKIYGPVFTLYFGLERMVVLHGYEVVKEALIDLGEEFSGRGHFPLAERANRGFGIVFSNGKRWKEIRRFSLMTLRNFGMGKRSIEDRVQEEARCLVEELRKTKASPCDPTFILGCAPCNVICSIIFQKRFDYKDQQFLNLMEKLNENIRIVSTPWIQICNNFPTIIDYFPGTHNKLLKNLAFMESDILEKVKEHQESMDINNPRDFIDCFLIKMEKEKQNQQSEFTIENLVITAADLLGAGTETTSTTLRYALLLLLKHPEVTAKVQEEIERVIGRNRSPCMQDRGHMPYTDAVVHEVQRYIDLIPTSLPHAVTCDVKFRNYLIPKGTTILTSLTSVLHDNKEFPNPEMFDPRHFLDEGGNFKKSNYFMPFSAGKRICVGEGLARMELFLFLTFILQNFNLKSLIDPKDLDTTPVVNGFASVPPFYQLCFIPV
Sequence of Cytochrome P450 2C9 (P11712 whole entry): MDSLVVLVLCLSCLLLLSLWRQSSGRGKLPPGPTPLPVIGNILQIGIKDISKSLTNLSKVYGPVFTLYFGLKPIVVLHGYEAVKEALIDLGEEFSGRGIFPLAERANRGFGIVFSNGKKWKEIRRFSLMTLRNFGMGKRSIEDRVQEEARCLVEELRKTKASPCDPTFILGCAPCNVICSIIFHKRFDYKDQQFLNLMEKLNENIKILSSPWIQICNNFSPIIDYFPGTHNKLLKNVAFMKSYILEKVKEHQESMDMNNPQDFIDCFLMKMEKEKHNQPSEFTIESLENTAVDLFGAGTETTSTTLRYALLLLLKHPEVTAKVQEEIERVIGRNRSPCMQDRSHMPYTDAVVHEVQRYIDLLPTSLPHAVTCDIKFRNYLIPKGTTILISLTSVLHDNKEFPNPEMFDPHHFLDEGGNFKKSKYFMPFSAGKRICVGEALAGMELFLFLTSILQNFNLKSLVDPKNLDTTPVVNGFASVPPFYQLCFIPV
Sequence of Large T antigen (P03070 whole entry): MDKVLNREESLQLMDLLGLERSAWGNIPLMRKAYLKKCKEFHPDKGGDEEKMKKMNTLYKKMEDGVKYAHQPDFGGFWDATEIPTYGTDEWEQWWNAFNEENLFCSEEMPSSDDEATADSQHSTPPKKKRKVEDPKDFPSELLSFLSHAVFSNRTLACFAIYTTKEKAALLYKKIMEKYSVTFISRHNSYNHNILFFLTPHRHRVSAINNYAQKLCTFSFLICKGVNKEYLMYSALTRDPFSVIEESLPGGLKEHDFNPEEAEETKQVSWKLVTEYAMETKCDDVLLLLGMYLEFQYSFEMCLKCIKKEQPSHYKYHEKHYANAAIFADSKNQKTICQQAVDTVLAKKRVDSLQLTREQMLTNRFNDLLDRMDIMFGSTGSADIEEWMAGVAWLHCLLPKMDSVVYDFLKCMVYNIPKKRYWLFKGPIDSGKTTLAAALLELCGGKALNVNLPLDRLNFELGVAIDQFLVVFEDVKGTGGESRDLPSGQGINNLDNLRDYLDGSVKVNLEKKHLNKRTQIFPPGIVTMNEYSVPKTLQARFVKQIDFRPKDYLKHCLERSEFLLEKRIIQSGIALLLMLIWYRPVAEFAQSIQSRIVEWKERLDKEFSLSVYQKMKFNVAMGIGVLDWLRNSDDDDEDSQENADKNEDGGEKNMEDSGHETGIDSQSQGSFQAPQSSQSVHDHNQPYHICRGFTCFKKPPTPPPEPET

Cc1ccc(-c2nn3c(C)nnc3c3ccccc23)cc1S(=O)(=O)NCCN1CCOCC1
AC50 (Cytochrome P450 2C9): 20 µM (inconclusive)
AC50 (Cytochrome P450 2C19): inconclusive
IC50 [1]: > 80 µM (inactive)

Nc1c(N(C(=O)Nc2ccc(Cl)c(Cl)c2)C2CCCC2)c(=O)[nH]c(=O)n1Cc1ccccc1
EC50 [2]: 15.5 µM (active)
EC50 [3]: 15.3 µM (active)
Absolute IC50 (XBP1) (X-box-binding protein 1): 10 µM

COC(=O)/C(=C(/F)Sc1cc(C)c(O)c(C)c1)C(F)(F)F
Absolute IC50 (XBP1) (X-box-binding protein 1): 10 µM

CCn1c(=O)c2cc(C(=O)NCc3cccs3)sc2c2ccccc21
IC50 [1]: > 80 µM (inactive)

Cc1ccc(S(=O)(=O)Nc2ccc(NC(=O)Nc3cccc(C(F)(F)F)c3)cc2)cc1
AC50 [4]: 1.36 µM (active)
EC50 [2]: 9.49 µM (active)
AC50 (INS1): 8.16 µM (active)
EC50 [3]: 12.9 µM (active)
Absolute IC50 (XBP1) (X-box-binding protein 1): 10 µM

CC[C@H](C)/C=C(C)/C=C/C1=CC2=C(Cl)C(=O)[C@@](C)(OC(C)=O)C(=O)C2=CO1
IC50 (Hexokinase HKDC1): 16.8 µM (active)
IC50 (Large T antigen): 30.4 µM (active)

COCCCN1C(=O)/C(=C\c2nc(C#N)c(Nc3ccc(C)cc3)o2)SC1=S
EC50 [5]: 108 µM (active)
EC50 [6]: > 35.4 µM (not active)
EC50 (Streptococcus): > 150 µM (not active)
EC50 (HEK293): > 35.4 µM (not active)
EC50 [7]: > 35.4 µM (not active)
EC50 (Streptokinase A): > 150 µM (not active)

Source: ChEMBL document CHEMBL1201862, “PubChem BioAssay data set” (2004)
